Experimental data reported in US20230181482A1, “LIPIDS FOR DELIVERY OF NUCLEIC ACID SEGMENTS” (AstraZeneca AB, priority 2021, published 2023).

Key:
[1] = mRNA encapsulation efficiency of LNP formulations (Quant-it Ribogreen assay with Triton-X100); assay type: physicochemical
Method: (§1) A solution of eGFP mRNA (purchased from TriLink Biotechnologies) in citrate buffer was prepared by mixing mRNA dissolved in MilliQ-water, 100 mM citrate buffer (pH 3) and MilliQ-water to give a solution of 50 mM citrate. Lipid solution in ethanol (99.5%) was prepared with four different lipid components: ionizable lipid (see Table 1); cholesterol (Sigma-Aldrich); DSPC (distearoyl phosphatidyl choline, Avanti Polar Lipids Inc); and a polymer-conjugated lipid (see Table 1). The ratio of lipids in all experiments was ionizable lipid/cholesterol/DSPC/polymer-conjugated lipid (50/38.5/10/1.5 mol %). The total concentration of lipids in all experiments was 12.5 mM.
(§2) The mRNA and lipid solutions were mixed in a NanoAssemblr (Precision Nanosystems, Vancouver, BC, Canada) microfluidic mixing system at a mixing ratio of Aq:EtOH=3:1 and a constant flow rate of 12 mL/min. The mRNA in citrate buffer solution was prepared such that, at the time of mixing the ratio between the nitrogen atoms on the ionizable lipid and phosphorus atoms (N/P ratio) on the mRNA chain was either 3:1 or 6:1 (see Table 1).
The final mRNA concentration and encapsulation efficiency percentage (% EE) was measured by Quant-it Ribogreen Assay Kit (ThermoFischer Scientific Inc.) using Triton-X100 to disrupt the LNPs. The mRNA encapsulation efficiency was determined according to the following equation: […]

Female BALB/c mice = test: eGFP expression in the liver at 24 hours after intravenous administration of LNP formulations to mouse (ELISA); assay type: in vivo; conditions: LNP N/P 3:1, DMPE-PEG2000
Text: Female BALB/c mice were purchased (SPF (Beijing) Laboratory Animal Technology Co. Ltd.) and on arrival were caged in groups of 4 on corncob bedding, with normal diet and were provided tap drinking water ad libitum that was purified and autoclaved before being offered to the animal. The environment was maintained at a target temperature of […] and relative humidity of 40-80%, with a 12-hour light/dark cycle. Animals were acclimatised to the housing conditions for at least 7 days prior to any experimental procedures and were approximately 6-8 weeks of age at the start of dosing
Animals were assigned to respective groups such that the mean body weights for each treatment groups will be equal. N=4 for each treatment group.
Formulations 1, 3, 4, 5, and 6 from Example 58 were each dosed intravenously: Each mouse was removed from its cage and restrained, and then dosed with a slow IV bolus of a formulation in the lateral tail vein at a dose […] of 0.3 mg/kg.
All animals were sacrificed 24 hours after dosing and flowing blood sampling the liver for the animals dosed by the IV route and the liver and muscle at the dose site for the IM dosed animals were harvested for eGFP analysis by ELISA.
Additional LNP formulations were prepared according to the procedures described in Example 46. These formulations were tested using the same protocol as described herein. The results of eGFP expression in the liver at 24 hours after intravenous administration of the formulations were summarized in Tables 3, 4, 5 and 6 below.

[2] = LNP particle size by dynamic light scattering (Zetasizer Nano ZS); assay type: physicochemical
Method: as §1, §2
The first 0.2-0.35 mL and the last 0.05-0.1 mL of the LNP suspension prepared were discarded while the rest of the volume was collected as the sample fraction. The size of the mRNA lipid nanoparticles was determined by dynamic light scattering measurements using a Zetasizer Nano ZS from Malvern Instruments Ltd, giving directly the z-average particle diameter. The number-weighted particle size distributions and averages were calculated using a particle refractive index of 1.45.

[3] = Table 4, N/P ratio 3:1, DMPE-PEG2000
[4] = Table 6, N/P ratio 3:1, DMPE-PEG2000
[5] = Table 5, N/P ratio 3:1, DMPE-PEG2000
[6] = Table 1, LNP with eGFP mRNA, N/P ratio 3:1, DMPE-PEG2000
[7] = Table 1, number-average particle diameter, N/P ratio 3:1, DMPE-PEG2000
[8] = Table 1, z-average particle diameter, N/P ratio 3:1, DMPE-PEG2000
[9] = Table 1, LNP with eGFP mRNA, N/P ratio 6:1, DMG-PEG2000
[10] = Table 1, number-average particle diameter, N/P ratio 6:1, DMG-PEG2000
[11] = Table 1, z-average particle diameter, N/P ratio 6:1, DMG-PEG2000

## CCCCCCCCC(C)OC(=O)CCCCCCC(CCCCCCC(=O)OC(CCCCCCCC)CCCCCCCC)NC1CC2(COC2)C1 (centres unmarked) [Compound 25, 1-(decan-2-yl) 15-(heptadecan-9-yl) 8-((2-oxaspiro[3.3]heptan-6-yl)amino)pentadecanedioate]
[1]; [3]
  % EE: 94%
Female BALB/c mice; Table 4, 0.3 mg/kg
  Liver eGFP protein (ng/g tissue): 15961.7 ng/g tissue
[2]; [3]
  <d>N (nm): 50 nm
  <d>Z (nm): 69 nm

## CCCCCCCCCOC(=O)CCCCCCC(CCCCCCC(=O)OC(CCCCCCCC)CCCCCCCC)NC1CC2(COC2)C1 (centres unmarked) [Compound 24, 1-(heptadecan-9-yl) 15-nonyl 8-((2-oxaspiro[3.3]heptan-6-yl)amino)pentadecanedioate]
[1]; [3]
  % EE: 94%
Female BALB/c mice; Table 4, 0.3 mg/kg
  Liver eGFP protein (ng/g tissue): 748.9 ng/g tissue
[2]; [3]
  <d>N (nm): 52 nm
  <d>Z (nm): 71 nm

## CCCCCCCCC(CCC)OC(=O)CCCCCCCC(CCCCCCCC(=O)OC(CCCCCCCC)CCCCCCCC)NC1CC2(COC2)C1 (centres unmarked) [Compound 50, 1-(dodecan-4-yl) 17-(heptadecan-9-yl) 9-((2-oxaspiro[3.3]heptan-6-yl)amino)heptadecanedioate]
[1]; [4]
  % EE: 97%
Female BALB/c mice; Table 6, 0.3 mg/kg
  Liver eGFP protein (ng/g tissue): 7410.4 ng/g tissue
[2]; [4]
  <d>N (nm): 51 nm
  <d>Z (nm): 65 nm

## CCCCCCCCC(CCCCCCCC)OC(=O)CCCCCCCC(CCCCCCCC(=O)OC(CC)CCCCC)NC1CC2(COC2)C1 (centres unmarked) [Compound 46, 1-(heptadecan-9-yl) 17-(octan-3-yl) 9-((2-oxaspiro[3.3]heptan-6-yl)amino)heptadecanedioate]
[1]; [4]
  % EE: 93%
Female BALB/c mice; Table 6, 0.3 mg/kg
  Liver eGFP protein (ng/g tissue): 15932.1 ng/g tissue
[2]; [4]
  <d>N (nm): 54 nm
  <d>Z (nm): 73 nm

## CCCCCCCCC(CCCCCCCC)OC(=O)CCCCCCCC(CCCCCCCC(=O)OCCC(C)CCCCCC)NC1CC2(COC2)C1 (centres unmarked) [Compound 42, 1-(heptadecan-9-yl) 17-(3-methylnonyl) 9-((2-oxaspiro[3.3]heptan-6-yl)amino)heptadecanedioate]
[1]; [5]
  % EE: 94%
Female BALB/c mice; Table 5, 0.3 mg/kg
  Liver eGFP protein (ng/g tissue): 1868.2 ng/g tissue
[2]; [5]
  <d>N (nm): 66 nm
  <d>Z (nm): 84 nm

## CCCCCC(CCCCC)CCOC(=O)CCCCCCCC(CCCCCCCC(=O)OCCC(CCCCC)CCCCC)NCC1CCOC1 (centres unmarked) [Compound 3, bis(3-pentyloctyl) 9-(((tetrahydrofuran-3-yl)methyl)amino)heptadecanedioate]
[1]; [6]
  % EE: 99%
[2]; [7]
  <d>N (nm): 58 nm
[2]; [8]
  <d>Z (nm): 79 nm

## CCCCCCCCCOC(=O)CCCCCCCN(CCO)CCCCCCCC(=O)OC(CCCCCCCC)CCCCCCCC [MOD5, heptadecan-9-yl 8-((2-hydroxyethyl)(8-(nonyloxy)-8-oxooctyl)amino)octanoate, reference compound]
[1]; [9]
  % EE: 98%
[2]; [10]
  <d>N (nm): 47 nm
[2]; [11]
  <d>Z (nm): 66 nm

## CCCCCC(CCCCC)CCOC(=O)CCCCCCCCC(CCCCCCCCC(=O)OCCC(CCCCC)CCCCC)NC1CCOCC1 [Compound 15, bis(3-pentyloctyl) 10-((tetrahydro-2H-pyran-4-yl)amino)nonadecanedioate]
[1]; [3]
  % EE: 97%
Female BALB/c mice; Table 4, 0.3 mg/kg
  Liver eGFP protein (ng/g tissue): 829.4 ng/g tissue
[2]; [3]
  <d>N (nm): 72 nm
  <d>Z (nm): 89 nm

## CCCCCCCCC(CCCCCCCC)OC(=O)CCCCCCC(CCCCCCC(=O)OC(CCCCCCCC)CCCCCCCC)NC1CC2(COC2)C1 [Compound 23, di(heptadecan-9-yl) 8-((2-oxaspiro[3.3]heptan-6-yl)amino)pentadecanedioate]
[1]; [3]
  % EE: 96%
Female BALB/c mice; Table 4, 0.3 mg/kg
  Liver eGFP protein (ng/g tissue): 2318.8 ng/g tissue
[2]; [3]
  <d>N (nm): 45 nm
  <d>Z (nm): 62 nm

## CCCCCCCCC(C)OC(=O)CCCCCCC(CCCCCCC(=O)OCC(CCCCCCC)CCCCCCC)NC1CC2(COC2)C1 (centres unmarked) [Compound 29, 1-(decan-2-yl) 15-(2-heptylnonyl) 8-((2-oxaspiro[3.3]heptan-6-yl)amino)pentadecanedioate]
[1]; [3]
  % EE: 90%
Female BALB/c mice; Table 4, 0.3 mg/kg
  Liver eGFP protein (ng/g tissue): 1288.4 ng/g tissue
[2]; [3]
  <d>N (nm): 51 nm
  <d>Z (nm): 71 nm

## CCCCCCCCC(C)OC(=O)CCCCCCCC(CCCCCCCC(=O)OC(CCCCCCCC)CCCCCCCC)NC1CC2(COC2)C1 (centres unmarked) [Compound 32, 1-(decan-2-yl) 17-(heptadecan-9-yl) 9-((2-oxaspiro[3.3]heptan-6-yl)amino)heptadecanedioate]
[1]; [3]
  % EE: 94%
Female BALB/c mice; Table 4, 0.3 mg/kg
  Liver eGFP protein (ng/g tissue): 16518.2 ng/g tissue
[2]; [3]
  <d>N (nm): 56 nm
  <d>Z (nm): 72 nm

## CCCCCCCCC(CC)OC(=O)CCCCCCCC(CCCCCCCC(=O)OC(CCCCCCCC)CCCCCCCC)NC1CC2(COC2)C1 (centres unmarked) [Compound 38, 1-(heptadecan-9-yl) 17-(undecan-3-yl) 9-((2-oxaspiro[3.3]heptan-6-yl)amino)heptadecanedioate]
[1]; [5]
  % EE: 97%
Female BALB/c mice; Table 5, 0.3 mg/kg
  Liver eGFP protein (ng/g tissue): 9730.7 ng/g tissue
[2]; [5]
  <d>N (nm): 61 nm
  <d>Z (nm): 76 nm

## CCCCCCCCC(CCCCCCCC)OC(=O)CCCCCCCC(CCCCCCCC(=O)OCC1CC1CCCCCC)NCC1CCOC1 (centres unmarked) [Compound 52, 1-(heptadecan-9-yl) 17-((2-hexylcyclopropyl)methyl) 9-(((tetrahydrofuran-3-yl)methyl)amino)heptadecanedioate]
[1]; [4]
  % EE: 95%
Female BALB/c mice; Table 6, 0.3 mg/kg
  Liver eGFP protein (ng/g tissue): 4701.7 ng/g tissue
[2]; [4]
  <d>N (nm): 55 nm
  <d>Z (nm): 71 nm

## CCCCCC(CCCCC)CCOC(=O)CCCCCCCC(CCCCCCCC(=O)OCCC(CCCCC)CCCCC)NCC1COC1 [Compound 5, bis(3-pentyloctyl) 9-((oxetan-3-ylmethyl)amino)heptadecanedioate]
[1]; [6]
  % EE: 99%
[2]; [7]
  <d>N (nm): 54 nm
[2]; [8]
  <d>Z (nm): 70 nm

## CCCCCC(CCCCC)CCOC(=O)CCCCCCCC(CCCCCCCC(=O)OCCC(CCCCC)CCCCC)NCC1CCOCC1 [Compound 4, bis(3-pentyloctyl) 9-(((tetrahydro-2H-pyran-4-yl)methyl)amino)heptadecanedioate]
[1]; [6]
  % EE: 96%
[2]; [7]
  <d>N (nm): 62 nm
[2]; [8]
  <d>Z (nm): 81 nm

## CCCCCC(CCCCC)CCOC(=O)CCCCCCCC(CCCCCCCC(=O)OCCC(CCCCC)CCCCC)NC1CCOCC1 [Compound 2, bis(3-pentyloctyl) 9-[(oxan-4-yl)amino]heptadecanedioate]
[1]; [6]
  % EE: 96%
[2]; [7]
  <d>N (nm): 58 nm
[2]; [8]
  <d>Z (nm): 73 nm

## CCCCCCCCCCCOC(=O)CCCCCN(CCO)CCCCCCCC(=O)OC(CCCCCCCC)CCCCCCCC [MOD8, heptadecan-9-yl 8-((2-hydroxyethyl)(6-oxo-6-(undecyloxy)hexyl)amino)octanoate, reference compound]
[1]; [9]
  % EE: 98%
[2]; [10]
  <d>N (nm): 49 nm
[2]; [11]
  <d>Z (nm): 73 nm
